In patent US10039747B2, “Tetrahydrocyclopentapyrrole derivatives and a method for preparing the same” (Daewoong Pharmaceutical Co., Ltd., priority 2013, dated 2018):

What follows are compounds tested against T1, H+/K+-ATPase (Sus scrofa, UniProt P19156) (assay: Inhibition of proton pump (H+/K+-ATPase) activity in hog gastric vesicles). Conditions: K+ specific H+/K+-ATPase activity, pH 7.4, 37° C. for 40 minutes, malachite green.
T1 construct: reaction buffer solution (60 mmol/l Tris-HCl buffer solution, pH 7.4) containing hog gastric vesicle; from tissue; host or cells: hog stomach (gastric vesicles, by centrifugation after Rabon et al. 1988)
T1 sequence (P19156 2-1034 limits assumed): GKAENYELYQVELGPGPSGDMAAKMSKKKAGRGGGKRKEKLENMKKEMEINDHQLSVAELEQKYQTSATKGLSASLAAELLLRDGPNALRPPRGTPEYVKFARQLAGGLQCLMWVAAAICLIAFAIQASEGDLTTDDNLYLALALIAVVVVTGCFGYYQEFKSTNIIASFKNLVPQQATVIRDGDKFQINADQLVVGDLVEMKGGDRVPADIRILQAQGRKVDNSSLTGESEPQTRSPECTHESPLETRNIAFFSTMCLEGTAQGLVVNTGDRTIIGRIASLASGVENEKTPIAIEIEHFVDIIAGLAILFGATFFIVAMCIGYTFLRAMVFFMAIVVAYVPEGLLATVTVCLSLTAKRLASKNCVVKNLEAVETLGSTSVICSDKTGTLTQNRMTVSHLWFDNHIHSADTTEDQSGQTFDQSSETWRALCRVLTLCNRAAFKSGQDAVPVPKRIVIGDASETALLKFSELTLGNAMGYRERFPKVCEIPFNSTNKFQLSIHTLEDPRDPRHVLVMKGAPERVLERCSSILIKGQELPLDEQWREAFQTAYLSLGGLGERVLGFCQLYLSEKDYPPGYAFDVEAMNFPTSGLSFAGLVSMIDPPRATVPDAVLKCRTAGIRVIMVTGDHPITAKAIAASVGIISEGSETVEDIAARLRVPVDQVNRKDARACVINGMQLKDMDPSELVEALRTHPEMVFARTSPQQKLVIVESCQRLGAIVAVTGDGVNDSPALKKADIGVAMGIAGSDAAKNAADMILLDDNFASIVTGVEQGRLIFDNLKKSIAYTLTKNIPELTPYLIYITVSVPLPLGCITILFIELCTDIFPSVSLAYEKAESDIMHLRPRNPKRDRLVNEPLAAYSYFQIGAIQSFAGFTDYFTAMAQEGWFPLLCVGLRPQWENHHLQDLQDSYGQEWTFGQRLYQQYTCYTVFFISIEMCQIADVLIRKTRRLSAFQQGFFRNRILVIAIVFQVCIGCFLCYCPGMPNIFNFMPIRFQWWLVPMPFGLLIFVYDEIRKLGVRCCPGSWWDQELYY
T1 sequence (P18434 whole entry partner): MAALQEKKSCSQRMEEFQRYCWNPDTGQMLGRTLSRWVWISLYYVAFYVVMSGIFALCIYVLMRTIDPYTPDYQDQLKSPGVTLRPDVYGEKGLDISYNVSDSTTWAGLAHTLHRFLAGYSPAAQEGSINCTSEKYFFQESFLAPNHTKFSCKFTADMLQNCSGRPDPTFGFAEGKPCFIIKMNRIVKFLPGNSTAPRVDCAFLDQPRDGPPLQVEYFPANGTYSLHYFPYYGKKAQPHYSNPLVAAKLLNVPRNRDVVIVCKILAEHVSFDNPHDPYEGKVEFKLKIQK
Assay type: biochemical
Experimental: 1) Preparation of Gastric Vesicles
Gastric vesicles were prepared from hog stomach by centrifugation (Edd C. Rabon et al., Preparation of Gastric H^+,K^+-ATPase, Methods in enzymology, vol. 157 Academic Press Inc., (1988), pp. 649-654). The protein contents of the prepared gastric vesicles were quantified with a Bicinchoninic Acid (BCA) kit.
2) Measurement of Effect of Inhibiting Proton Pump (H^+/K^+-ATPase) Activity
The effect of inhibiting proton pump activity by the compound of the present invention was measured in a 96-well plate. In this experiment, K^+ specific H^+/K^+-ATPase activity was calculated based on the difference between H^+/K^+-ATPase activity in the presence of K^+ ions and H^+/K^+-ATPase activity in the absence of K^+ ions. In the 96-well plate, to negative and positive control groups, 0.5% dimethylsulfoxide (DMSO) in buffer was added, and to the test groups, the compound of the present invention was added. All the analyses were conducted at room temperature with the reaction volume of 100 μl. To a reaction buffer solution (60 mmol/l Tris-HCl buffer solution, pH 7.4) containing hog gastric vesicle, DMSO and each concentration of compound were added, and then, 10 μl of a 10 mmol/l adenosine triphosphate tris buffer solution (60 mmol/l Tris-HCl buffer solution, pH 7.4) was added to initiate an enzyme reaction. The enzyme reaction was conducted at 37° C. for 40 minutes, 50 μl of a malachite green solution (0.12% malachite green solution, 5.8% ammonium molybdate and 11% tween 20 were mixed at a ratio of 100:67:2 in 6.2 N sulfuric acid) was added to stop the reaction, and 50 μl of 15.1% sodium citrate was added. During the reaction, the amount of monophosphate (Pi) was measured at 570 nm using micro plate reader (FLUOstar Omega, BMG Company). Inhibition rate (%) was measured from the activity values of the control groups and the activity values of various concentrations of the test compound, and IC50 of the test compound was calculated from each % inhibition value of the compound using Logistic 4-parameter function of Sigmaplot 8.0 program.

Structure (SMILES) | IC50 [µM]
CNC1CCc2c1cn(S(=O)(=O)c1cccc(Cl)c1)c2C (stereo not shown) [Example 2, 2-((3-chlorophenyl)sulfonyl)-N,1-dimethyl-2,4,5,6-tetrahydrocyclopenta[c]pyrrol-4-amine] | 10
CNC1CCc2c1cn(S(=O)(=O)c1cccc(Cl)c1)c2-c1ccccc1Cl (stereo not shown) [Example 5, 1-(2-chlorophenyl)-2-((3-chlorophenyl)sulfonyl)-N-methyl-2,4,5,6-tetrahydrocyclopenta[c]pyrrol-4-amine] | 0.74
CNC1CCc2c1cn(S(=O)(=O)c1cccc(Cl)c1)c2-c1ccccc1C1CC=CC1 (stereo not shown) [Example 6, 2-((3-chlorophenyl)sulfonyl)-1-(2-(cyclopent-3-en-1-yl)phenyl)-N-methyl-2,4,5,6-tetrahydrocyclopenta[c]pyrrol-4-amine] | 1.32
CNC1CCc2c1cn(S(=O)(=O)c1cccc(Cl)c1)c2-c1ccccc1N1CCOCC1 (stereo not shown) [Example 7] | 40
CNC1CCc2c1cn(S(=O)(=O)c1cccc(Cl)c1)c2-c1cccc(C)c1 (stereo not shown) [Example 8, 2-((3-chlorophenyl)sulfonyl)-N-methyl-1-(m-tolyl)-2,4,5,6-tetrahydrocyclopenta[c]pyrrol-4-amine] | 0.75
CNC1CCc2c1cn(S(=O)(=O)c1cccc(Cl)c1)c2-c1cccc(F)c1 (stereo not shown) [Example 9, 2-((3-chlorophenyl)sulfonyl)-1-(3-fluorophenyl)-N-methyl-2,4,5,6-tetrahydrocyclopenta[c]pyrrol-4-amine] | 0.83
CNC1CCc2c1cn(S(=O)(=O)c1cccc(Cl)c1)c2-c1cccc(C(F)(F)F)c1 (stereo not shown) [Example 10, 2-((3-chlorophenyl)sulfonyl)-N-methyl-1-(3-(trifluoromethyl)phenyl)-2,4,5,6-tetrahydrocyclopenta[c]pyrrol-4-amine] | 0.97
CNC1CCc2c1cn(S(=O)(=O)c1cccc(Cl)c1)c2-c1ccc(C#N)cc1 (stereo not shown) [Example 13, 4-(2-((3-chlorophenyl)sulfonyl)-4-(methylamino)-2,4,5,6-tetrahydrocyclopenta[c]pyrrol-1-yl)benzonitrile] | 1.8
CNC1CCc2c1cn(S(=O)(=O)c1cccc(Cl)c1)c2-c1ccc(OC)cc1 (stereo not shown) [Example 14, 2-((3-chlorophenyl)sulfonyl)-1-(4-methoxyphenyl)-N-methyl-2,4,5,6-tetrahydrocyclopenta[c]pyrrol-4-amine] | 1.26
CNC1CCc2c1cn(S(=O)(=O)c1cccc(Cl)c1)c2-c1ccc(C(=O)OC)cc1 (stereo not shown) [Example 15, methyl 4-(2-((3-chlorophenyl)sulfonyl)-4-(methylamino)-2,4,5,6-tetrahydrocyclopenta[c]pyrrol-1-yl)benzoate] | 2.9
CNC1CCc2c1cn(S(=O)(=O)c1cccc(Cl)c1)c2-c1ccc(C(F)(F)F)cc1 (stereo not shown) [Example 16, 2-((3-chlorophenyl)sulfonyl)-N-methyl-1-(4-(trifluoromethyl)phenyl)-2,4,5,6-tetrahydrocyclopenta[c]pyrrol-4-amine] | 0.97
CNC1CCc2c1cn(S(=O)(=O)c1cccc(Cl)c1)c2-c1ccc(OC(F)(F)F)cc1 (stereo not shown) [Example 17, 2-((3-chlorophenyl)sulfonyl)-N-methyl-1-(4-(trifluoromethoxy)phenyl)-2,4,5,6-tetrahydrocyclopenta[c]pyrrol-4-amine] | 1.39
CNC1CCc2c1cn(S(=O)(=O)c1cccc(Cl)c1)c2-c1ccc(Cl)cc1Cl (stereo not shown) [Example 21, 2-((3-chlorophenyl)sulfonyl)-1-(2,4-dichlorophenyl)-N-methyl-2,4,5,6-tetrahydrocyclopenta[c]pyrrol-4-amine] | 0.9
CNC1CCc2c1cn(S(=O)(=O)c1cccc(Cl)c1)c2-c1cc(Cl)cc(Cl)c1 (stereo not shown) [Example 25, 2-((3-chlorophenyl)sulfonyl)-1-(3,5-dichlorophenyl)-N-methyl-2,4,5,6-tetrahydrocyclopenta[c]pyrrol-4-amine] | 0.79
CNC1CCc2c1cn(S(=O)(=O)c1cccc(Cl)c1)c2-c1cc(Cl)c(C)cc1F (stereo not shown) [Example 26, 1-(5-chloro-2-fluoro-4-methylphenyl)-2-((3-chlorophenyl)sulfonyl)-N-methyl-2,4,5,6-tetrahydrocyclopenta[c]pyrrol-4-amine] | 0.62
CNC1CCc2c1cn(S(=O)(=O)c1cccc(Cl)c1)c2Cc1ccccc1 (stereo not shown) [Example 27, 1-benzyl-2-((3-chlorophenyl)sulfonyl)-N-methyl-2,4,5,6-tetrahydrocyclopenta[c]pyrrol-4-amine] | 7.01
CNC1CCc2c1cn(S(=O)(=O)c1cccc(Cl)c1)c2-c1ccc2occc2c1 (stereo not shown) [Example 29, 1-(benzofuran-5-yl)-2-((3-chlorophenyl)sulfonyl)-N-methyl-2,4,5,6-tetrahydrocyclopenta[c]pyrrol-4-amine] | 1.28
CNC1CCc2c1cn(S(=O)(=O)c1cccc(Cl)c1)c2-c1cnn(C)c1 (stereo not shown) [Example 30, 2-((3-chlorophenyl)sulfonyl)-N-methyl-1-(1-methyl-1H-pyrazol-4-yl)-2,4,5,6-tetrahydrocyclopenta[c]pyrrol-4-amine] | 1.04
CNC1CCc2c1cn(S(=O)(=O)c1cccc(Cl)c1)c2-c1ccoc1 (stereo not shown) [Example 31, 2-((3-chlorophenyl)sulfonyl)-1-(furan-3-yl)-N-methyl-2,4,5,6-tetrahydrocyclopenta[c]pyrrol-4-amine] | 1.34

The next lines start with the values.

IC50 [µM] | Structure (SMILES)
0.45 | CNC1CCc2c1cn(S(=O)(=O)c1cccc(Cl)c1)c2-c1ccccc1 (stereo not shown) [Example 3, 2-((3-chlorophenyl)sulfonyl)-N-methyl-1-phenyl-2,4,5,6-tetrahydrocyclopenta[c]pyrrol-4-amine]
0.61 | CNC1CCc2c1cn(S(=O)(=O)c1cccc(Cl)c1)c2-c1ccccc1C (stereo not shown) [Example 4, 2-((3-chlorophenyl)sulfonyl)-N-methyl-1-(o-tolyl)-2,4,5,6-tetrahydrocyclopenta[c]pyrrol-4-amine]
0.55 | CNC1CCc2c1cn(S(=O)(=O)c1cccc(Cl)c1)c2-c1ccc(F)cc1 (stereo not shown) [Example 11, 2-((3-chlorophenyl)sulfonyl)-1-(4-fluorophenyl)-N-methyl-2,4,5,6-tetrahydrocyclopenta[c]pyrrol-4-amine]
0.47 | CNC1CCc2c1cn(S(=O)(=O)c1cccc(Cl)c1)c2-c1ccc(O)cc1 (stereo not shown) [Example 12, 4-(2-((3-chlorophenyl)sulfonyl)-4-(methylamino)-2,4,5,6-tetrahydrocyclopenta[c]pyrrol-1-yl)phenol]
0.43 | CNC1CCc2c1cn(S(=O)(=O)c1cccc(Cl)c1)c2-c1ccc(C)cc1F (stereo not shown) [Example 18, 2-((3-chlorophenyl)sulfonyl)-1-(2-fluoro-4-methylphenyl)-N-methyl-2,4,5,6-tetrahydrocyclopenta[c]pyrrol-4-amine]
0.28 | CNC1CCc2c1cn(S(=O)(=O)c1cccc(Cl)c1)c2-c1ccc(F)cc1F (stereo not shown) [Example 19, 2-((3-chlorophenyl)sulfonyl)-1-(2,4-difluorophenyl)-N-methyl-2,4,5,6-tetrahydrocyclopenta[c]pyrrol-4-amine]
0.54 | CNC1CCc2c1cn(S(=O)(=O)c1cccc(Cl)c1)c2-c1ccc(Cl)cc1F (stereo not shown) [Example 20, 1-(4-chloro-2-fluorophenyl)-2-((3-chlorophenyl)sulfonyl)-N-methyl-2,4,5,6-tetrahydrocyclopenta[c]pyrrol-4-amine]
0.45 | CNC1CCc2c1cn(S(=O)(=O)c1cccc(Cl)c1)c2-c1cc(Cl)ccc1F (stereo not shown) [Example 22, 1-(5-chloro-2-fluorophenyl)-2-((3-chlorophenyl)sulfonyl)-N-methyl-2,4,5,6-tetrahydrocyclopenta[c]pyrrol-4-amine]
0.41 | CNC1CCc2c1cn(S(=O)(=O)c1cccc(Cl)c1)c2-c1cc(Cl)ccc1Cl (stereo not shown) [Example 23, 2-((3-chlorophenyl)sulfonyl)-1-(2,5-dichlorophenyl)-N-methyl-2,4,5,6-tetrahydrocyclopenta[c]pyrrol-4-amine]
0.48 | CNC1CCc2c1cn(S(=O)(=O)c1cccc(Cl)c1)c2-c1ccc(F)c(F)c1 (stereo not shown) [Example 24, 2-((3-chlorophenyl)sulfonyl)-1-(3,4-difluorophenyl)-N-methyl-2,4,5,6-tetrahydrocyclopenta[c]pyrrol-4-amine]
0.59 | CNC1CCc2c1cn(S(=O)(=O)c1cccc(Cl)c1)c2-c1ccc2c(c1)OCO2 (stereo not shown) [Example 28, 1-(benzo[d][1,3]dioxol-5-yl)-2-((3-chlorophenyl)sulfonyl)-N-methyl-2,4,5,6-tetrahydrocyclopenta[c]pyrrol-4-amine]
0.45 | CNC1CCc2c1cn(S(=O)(=O)c1cccc(Cl)c1)c2-c1ccc(C)o1 (stereo not shown) [Example 32, 2-((3-chlorophenyl)sulfonyl)-N-methyl-1-(5-methylfuran-2-yl)-2,4,5,6-tetrahydrocyclopenta[c]pyrrol-4-amine]
